{"source": "patent US20240189263A1", "about": "“DERIVATIZED C60 MOLECULES AND METHODS AND MATERIALS FOR USING DERIVATIZED C60 MOLECULES TO REDUCE RADIATION INJURY” (Mayo Foundation for Medical Education and Research, priority 2021, published 2024)", "assay_type_in_all_cases": "cell-based", "key": {"NIH3T3 cells": {"test_system": "NIH3T3 cells", "assay": "ROS by H2-DCFDA probe after proton irradiation, NIH3T3", "details": "NIH3T3, pretreated 100 μM, TBHP 200 μM, 1 Gy proton, read 30 minutes post radiation", "text": "Cell lines were irradiated using pencil beam scanning (PBS) proton beams produced by IBA ProteusOne (Ion Beam Applications, Louvain-la-Neuve, Belgium). Single layer mono-energy 227 MeV pencil beams with uniform spacing of 0.25 cm between each spot were used to create a large field size with uniform dose distribution (±2%) that encompassed all sample wells containing the cells. A fixed source to surface distance (SSD) setup and gantry at 180 degrees was used to delivery 0.5, 1, 2, 4, and 6 Gray (Gy) dose of ionizing radiation to cells. The cells were place at an 8 cm depth, with a linear energy transfer (LET) of approximately 1.7 keV/μm, using solid water slabs as a buildup. […] The monitor units needed to deliver the intended dose were calculated using the measure dose/MU values.\nPost radiation, 2′,7′-dichlorodihydrofluorescein diacetate (H2-DCFDA) probes were used to measure the level of reactive oxygen species (ROS) post-proton radiation (1 Gy, 230 MeV proton beam). […] A fluorescence microplate reader (SpectraMax M5, Molecular Devices Corporation, California, USA) was used to detect the generation of fluorescent DCF molecules with an excitation filter of 485 nm and an emission filter of 525 nm, with a 515 nm cutoff filter. […] Following irradiation, the cells were transported back for plate reading, 30 minutes post radiation."}, "HepG2 cells [1]": {"test_system": "HepG2 cells", "assay": "DNA damage, γH2AX foci immunofluorescence, HepG2", "protocol": "To test the ability of C60-ser to protect against radiation injury, the level of DNA damage in response to radiation was analyzed by measuring γH2AX. The H2AX protein becomes phosphorylated into γH2AX as a result of DNA double strand breaks. This allows for the visualization and quantification of double strand break foci through immunofluorescence analysis. Cells were plated on 8 chamber slides and incubated overnight before C60-ser treatment. Three sets of slides per cell line (to be irradiated with 0, 0.5, and 1 Gy) were prepared, with the top 4 rows used as a control and the bottom 4 rows incubated with 100 μM C60-ser. Cells were incubated with C60-ser for 2 hours before irradiation with a clinical Proteus One proton machine (Ion Beam Applications, Louvain-la-Neuve, Belgium). A 230 MeV mono-energetic unmodulated broad beam of large field size that encompassed all slides containing the cells was used to deliver the 0.5 and 1 Gy doses. White solid water slabs (IBA Dosimetry, Germany) provided the necessary phantom material to place the cells at the desired 8 cm depth with an LET of approximately 1.7 keV/μm. After irradiation, cells were incubated at 37° C. with 5% CO2 for 30 minutes before washing and fixing the cells with 1% formaldehyde. The cells were permeabilized with 1% NP-40 and incubated with 5% BSA to block unspecific antibody bonding. The cells were then incubated with γH2AX primary antibody followed by a secondary antibody. Mounting media containing DAPI was used before applying cover slips and sealing the samples. Cells were imaged on an Olympus IX71 trinocular inverted fluorescence phase contrast microscope with a 40× objective. The resulting images were analyzed by ImageJ, and the foci were counted."}, "N2A cells": {"test_system": "N2A cells", "assay": "MTS cytotoxicity assay, N2A", "details": "1-1000 μM, 24, 48 or 72 hours", "protocol": "(§1) Cytotoxicity of C60-ser was determined by an MTS (3-(4,5-dimethylthiazol-2-yl)-5-(3-carboxymethoxyphenyl)-2-(4-sulfophenyl)-2H-tetrazolim) colorimetric assay on four different cell lines, each representing a different cell type. Specifically, HepG2 (liver epithelium), HUVEC (endothelial cells), N2A (neuroblastoma cells representative of normal neurons), and NIH3T3 (fibroblasts) were analyzed. The cells were seed in a 96-well tissue culture polystyrene plate at different seeding concentrations based on the cell's doubling time. HUVEC cells were seeded at 10,000 cells/well (24 hour experiments), 8,000 cells/well (48 hour experiments), and 5,000 cells/well (72 hour experiments), and incubated for 24 hours in a humidified atmosphere with 5% C02 at 37° C. […] After incubation with MTS, the optical density (OD) of the resulting formazan solution was read at 490 nm using a microplate reader (Biotek Cytation 5 cell Imaging Multi-Mode reader, Winooski, VT). The cell viability was obtained by normalizing the absorbance of the sample with that of the control wells containing untreated cells. The cell viability was expressed as a percentage, assigning the viability of non-treated cells as 100%. […]"}, "HepG2 cells [2]": {"test_system": "HepG2 cells", "assay": "MTS cytotoxicity assay, HepG2", "details": "HepG2, 1-1000 μM, 24, 48 or 72 hours", "protocol": "as §1"}}}
{"smiles": "O=C(NC(CO)CO)C1(C(=O)NC(CO)CO)C23c4c5c6c7c8c4-c4c2c2c9c%10c4C4%11c%12c-%10c%10c%13c%14c%12-c%12c(c-7c7c%15c%12C%14%12C(C(=O)NC(CO)CO)(C(=O)NC(CO)CO)C%12%14c%12c%16c%17c%18c(c%12-%15)C7%12C(C(=O)NC(CO)CO)(C(=O)NC(CO)CO)C6%12c6c-5c5c7c(c6-%18)C%176C(C(=O)NC(CO)CO)(C(=O)NC(CO)CO)C6%12c6c-7c(c-2c2c6-c6c%12c-%16c%14c-%13c6C%106C(C(=O)NC(CO)CO)(C(=O)NC(CO)CO)C926)C513)C84C%11(C(=O)NC(CO)CO)C(=O)NC(CO)CO", "note": "(stereo not drawn) [C60-ser, C60-serinol]", "values": [{"measurement": "ROS (H2-DCFDA fluorescence)", "setting": "NIH3T3 cells", "value": "significant reduction in ROS"}, {"measurement": "γH2AX foci vs control", "setting": "HepG2 cells [1]; HepG2, 100 μM 2 hours before 0.5 Gy proton radiation", "value": "trend towards reduction in total foci formed, but it was not statistically significant"}, {"measurement": "γH2AX foci vs control", "setting": "HepG2 cells [1]; HepG2, 100 μM 2 hours before 1 Gy proton radiation", "value": "significant decrease in the number of foci"}, {"measurement": "γH2AX foci vs control", "setting": "HepG2 cells [1]; HepG2, 100 μM 2 hours, absence of radiation", "value": "no significant different in foci expression"}, {"measurement": "percent viability", "setting": "N2A cells", "value": "did not result in a significant decrease in viability"}, {"measurement": "percent viability", "setting": "HepG2 cells [2]", "value": "did not result in a significant decrease in viability"}]}
